According to ChEMBL document CHEMBL3244379, “Stereochemical studies on medicinal agents. 23. Synthesis and biological evaluation of 6-amino derivatives of naloxone and naltrexone” (J Med Chem, 1977):
Calls of active or inactive are those of the source. The rule behind the calls is not given here.

How the values were obtained:
[1] = target: T1, Opioid receptors; mu/kappa/delta (Homo sapiens, UniProt P41145+P41143+P35372); experiment: Displacement of [3H] naloxone from opioid receptor (unknown origin)
[2] = tested on: Mus musculus; experiment: Antinociceptive activity in Swiss Webster mouse at 1.6 mg/kg, sc by tail-flick assay; format: functional, organism-based; design: dose 1.6 mg/kg
[3] = target: T1, Opioid receptors; mu/kappa/delta; experiment: Displacement of [3H] naloxone from opioid receptor (unknown origin) in presence of 100 mM NaCl
[4] = tested on: Mus musculus; experiment: Antinociceptive activity in Swiss Webster mouse at 5.12 mg/kg, sc by tail-flick assay; format: functional; conditions: route subcutaneous
[5] = tested on: Mus musculus; experiment: Antinociceptive activity in sc dosed Swiss Webster mouse by tail-flick assay; format: functional

Row | SMILES | IC50 [1] | inhibition [2] | IC50 [3] | inhibition in vivo at 5.12 mg/kg [4] | ED50 [5]
1 | C=CCN1CC[C@]23c4c5ccc(O)c4O[C@H]2[C@@H](N)CC[C@@]3(O)[C@H]1C5.Cl | 1.4 ×10⁻⁷ M | inactive | 1.1 ×10⁻⁷ M |  | 
2 | Cl.N[C@H]1CC[C@@]2(O)[C@H]3Cc4ccc(O)c5c4[C@@]2(CCN3CC2CC2)[C@H]1O5 | 2.9 nM |  | 9 nM | 18% | 
3 | Cl.N[C@@H]1CC[C@@]2(O)[C@H]3Cc4ccc(O)c5c4[C@@]2(CCN3CC2CC2)[C@H]1O5 | 9.1 ×10⁻¹⁰ M |  | 7 ×10⁻¹⁰ M | 27% | 
4 | C=CCN1CC[C@]23c4c5ccc(O)c4O[C@H]2[C@H](N)CC[C@@]3(O)[C@H]1C5.Cl | 8.6 ×10⁻⁸ M |  | 5.3 ×10⁻⁸ M |  | 4.9 mg/kg
5 | CN1CC[C@]23c4c5ccc(O)c4O[C@H]2[C@@H](O)C=C[C@H]3[C@H]1C5.Cl [MORPHINE HYDROCHLORIDE] |  |  |  |  | 0.33 mg/kg
